The text below walks through data of paper PMC12491715 (Acta Pharmaceutica Sinica. B, 2025).

One data set has as its target hAChE (Homo sapiens, UniProt P22303). Kind of data set: ChE IC50 determination, method of Ellman, hAChE. It is filed as biochemical. The protocol:
The inhibitory potencies of the compounds against the ChEs were determined using the method of Ellman following the procedure described previously. Briefly, compound stock solutions in DMSO were incubated with Ellman’s reagent and ChEs (final concentrations: 370 μmol/L Ellman’s reagent, approximately 1 nmol/L or 50 pmol/L hBChE or hAChE, respectively) in 0.1 mol/L sodium phosphate pH 8.0 for 5 min at 20 °C. For time-dependency measurements, the pre-incubation time was varied (1, 5, 15, 30 or 60 min). The reactions were started by the addition of the substrate (final concentration, 500 μmol/L butyrylthiocholine iodide or acetylthiocholine iodide for hBChE and hAChE, respectively). The final content of DMSO was always 1%. The increase in absorbance at 412 nm was monitored for 2 min using a 96-well microplate reader (Synergy HT, BioTek Instruments, VT, USA). The initial velocities in the presence (vi) and absence (v0) of the test compounds were calculated. The inhibitory potencies were expressed as the residual activities, according to Eq. (1):(1) RA = vi / v0
For IC50 determinations, at least seven different concentrations for each compound were used. The IC50 values were obtained by plotting the residual ChE activities against the applied inhibitor concentrations, with the experimental data fitted to a four-parameter logistic function (GraphPad Prism 9.4). Tacrine and donepezil were used as positive controls.

Data set [1] can be described thus: MTS assay, metabolic activity. It is filed as cell-based. To be noted: human, SH-SY5Y neuroblastoma cells, read-out: cytotoxic EC50. The procedure: Cell culture and treatments The human neuroblastoma SH-SY5Y cell line was purchased from American Type Culture Collection (Manassas, VA, USA). Cells were cultured in Advanced Dulbecco’s modified Eagle’s medium (Gibco, Thermo Fisher Scientific, Waltham, MA, USA) supplemented with 10% fetal bovine serum (FBS, Gibco), 2 mmol/L L-glutamine, 50 U/mL penicillin and 50 μg/mL streptomycin (Sigma, St. Louis, MO, USA) in a humidified atmosphere of 95% air and 5% CO2 at 37 °C, and grown to 80% confluence. Prior to cell treatment, complete medium was replaced with serum-reduced medium (i.e., with 2% FBS). Compounds were prepared as a stock solution of 50 mmol/L in DMSO.
MTS assay SH-SY5Y cells were seeded in 96-well plates (10^4/well) and assessed by MTS ([3-(4,5-dimethylthiazol-2-yl)-5-(3-carboxymethoxyphenyl)-2-(4-sulfophenyl)-2H-tetrazolium, inner salt) assay for their response to compounds. Cells were treated with increasing concentrations of compounds (0.1–10 μmol/L for 5, 1–100 μmol/L for 6–8) in a serum-reduced medium, and metabolic activity was assessed after 24 h (5) or 48 h (6–8) using the CellTiter 96® Aqueous One Solution Cell Proliferation Assay (Promega, Madison, WI, USA), in accordance with the manufacturer’s instructions. Absorbance was measured with an automatic microplate reader (Tecan Safire^2, Switzerland) at 492 nm. Results are presented as a percentage of the control (DMSO).

The subject of data set [2] is ICR mice icv-injected with Aβ1–42. Briefly: Novel object recognition, mice model with icv-injection of Aβ1–42. In kind it is in vivo. Particulars: ip, once a day, vs rivastigmine 4. The protocol:
Mice model with icv-injection of Aβ1–42 The experiments were performed using ICR male mice (8–10 weeks old, weight 18–20 g), which were purchased from Shanghai Bikai Animal Breeding Factory (Shanghai, China). Animals were housed in cages (6 mice per cage) at a constant temperature of 25±2 °C, humidity of 55%±10% and a light/dark (12:12) cycle. The mice had unlimited access to food and water prior to the experiment. Specified conditions for the maintenance of mice were ensured throughout the experiments, including tree bedding (Yizheng Anlimao Biotechnology Co., Ltd., China) and lab feed (Zimao, China). For behavioural tests, mice were selected randomly, each group consisted of 6 mice. The experiments were performed between 9 am and 3 pm.
According to the literature procedure, recombinant human hexafluoroisopropanol-pretreated Aβ1–42 from Merck Millipore (Darmstadt, Germany) was dissolved in 1% DMSO, diluted with saline to the final concentration of 2 mg/mL, and incubated for 72 h to form oligomers. […]
Novel object recognition experiment was performed in a maze with dimensions 50 cm×50 cm×40 cm, with black cuboid (4 cm×4 cm×5 cm) as the old object, and white cylinder (2r = 5 cm, h = 5 cm) as the new object. […] Time spent exploring new and old objects was recorded using ANY-maze software and processed using GraphPad Prism 5.

For another data set, the system named is tau. Kind of data set: Western blot of APP/PS1 mice brain homogenates, tau. It is filed as in vivo, C57BL/6J-TgN(APP/PS1)ZLFILAS mice. Particulars: 15-day treatment, 1 or 5 mg/kg ip. On the technique in general: A western blot detects proteins with antibodies after separation by electrophoresis.

Molecules are shown by their SMILES. A value given as a limit tells only on which side of the number the result lay.

Sequence of hAChE (P22303 32-614): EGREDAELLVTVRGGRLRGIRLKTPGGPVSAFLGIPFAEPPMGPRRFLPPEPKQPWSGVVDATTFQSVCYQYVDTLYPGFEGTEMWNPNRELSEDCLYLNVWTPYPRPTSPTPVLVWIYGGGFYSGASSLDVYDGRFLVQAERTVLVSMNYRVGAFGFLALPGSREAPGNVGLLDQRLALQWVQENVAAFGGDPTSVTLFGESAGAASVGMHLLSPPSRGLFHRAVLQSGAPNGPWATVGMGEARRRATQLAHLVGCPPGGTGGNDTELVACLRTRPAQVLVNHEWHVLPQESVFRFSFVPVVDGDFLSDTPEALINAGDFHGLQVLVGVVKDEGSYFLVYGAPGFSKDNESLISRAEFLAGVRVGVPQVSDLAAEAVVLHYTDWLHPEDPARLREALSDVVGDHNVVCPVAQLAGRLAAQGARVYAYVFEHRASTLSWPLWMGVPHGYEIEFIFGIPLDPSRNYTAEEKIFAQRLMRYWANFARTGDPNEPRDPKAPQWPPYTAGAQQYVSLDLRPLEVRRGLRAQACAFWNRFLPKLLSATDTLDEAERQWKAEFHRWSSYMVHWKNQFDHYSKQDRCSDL

The term EC50 denotes the midpoint of the concentration-response curve. Consider `CCN(CC)C(=O)n1cnc(C2(CC)Cc3ccccc3C2)c1` [Compound 8, N,N-Diethyl-4-(2-ethylindan-2-yl)-1H-imidazole-1-carboxamide], for which, at hAChE (pre-incubation time varied), the “hAChE time-dependency observed: Yes/No” value is recorded as “No”. At hAChE (residual activity at 100 μmol/L, after 5 min preincubation, read-out: hAChE RA±SD (residual activity)), the remaining activity at 100 µM came out at 62%. In data set [1], the EC50 at 48 h is over 100 µM. Moreover, the “recognition memory in novel object recognition task” value in data set [2] is recorded as “restored recognition memory comparable or better than 4”. Besides, in the data set with tau, the “tau hyperphosphorylation in whole brain homogenates” value is on record as “significantly lowered tau hyperphosphorylation”.
